Laboratory results reported in article PMC6462224 (Nature chemical biology, 2018).

Biological target: T1, M2R(S110R)_delta_ICL3 (Homo sapiens, UniProt P08172, DEL233-359/S110R)
T1 sequence (P08172 with tags, fused parts or gaps S110R/DEL233-359): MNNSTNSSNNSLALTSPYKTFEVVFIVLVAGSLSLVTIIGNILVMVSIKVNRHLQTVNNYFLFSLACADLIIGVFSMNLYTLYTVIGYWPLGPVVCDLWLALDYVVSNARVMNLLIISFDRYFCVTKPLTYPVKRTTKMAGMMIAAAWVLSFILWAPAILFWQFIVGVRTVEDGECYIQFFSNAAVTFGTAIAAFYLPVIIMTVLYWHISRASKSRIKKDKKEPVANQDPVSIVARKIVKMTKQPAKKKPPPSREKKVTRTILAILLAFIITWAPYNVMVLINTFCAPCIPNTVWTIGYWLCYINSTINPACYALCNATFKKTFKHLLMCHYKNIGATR
Test: Inhibition of [3H]NMS binding to M2R
Details: S110R vs wild type, Fig. 2e

Structure (SMILES): C[N+](C)(C)CC#CCOC1=NOCC1 [Iperoxo]
- reduction of affinity in S110R mutant relative to the wild type: ~1000 fold
